Results taken from paper PMC9775191, “A Subset Screen of the Compounds Australia Scaffold Library Identifies 7-Acylaminodibenzoxazepinones as Potent and Selective Hits for Anti-Giardia Drug Discovery” (Biomedicines, 2022).

Test system: G. duodenalis BRIS/91/HEPU/1279
Assay: Primary Giardia screen at 10 µM (live-cell imaging, automated counting)
Format: cell-based, Giardia duodenalis
Conditions: for % Inhibition n=1 48h / % Inhibition n=1 24h: first singlicate assay; for % Inhibition n=2 24h / % Inhibition n=2 48h: re-assessment
In short: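 Percent growth versus 0.2% DMSO vehicle, background-corrected with media-only wells, is reported at 24 and 48 h from automated live-cell counts. Testing used 10 μM final in a 3% O2 atmosphere, with plate quality checked by Z' factor.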

SMILES	% Inhibition n=1 48h [%]	other results
CCCN1C(=O)c2cc(C(=O)Nc3ccccc3OC)ccc2C1Nc1ccccc1OC (stereo not shown) [SN00785171]	21.9	
CC(=O)N1CCc2cc(C(=O)CN3CCN(c4ccc(C(F)(F)F)cc4[N+](=O)[O-])CC3)ccc21 [SN00785201]	3.8	
CC(=O)N1CCc2cc(C(=O)CN3CC(C)CC(C)C3)ccc21 (stereo not shown) [SN00785210]	19.3	
CCn1c(C)c(C2=CCN(S(=O)(=O)c3ccc(F)cc3)CC2)c2ccccc21 [SN00785221]	17.2	
Cc1ccc(-c2[nH]c(-c3ccccc3)nc2S(=O)(=O)CC(=O)Nc2ccccc2)cc1 [SN00785272]	11.7	
COc1ccc(-c2nc(S(=O)(=O)CC(=O)Nc3ccc(F)cc3)c(-c3ccc(OC)cc3)[nH]2)cc1 [SN00785276]	12.5	
CCc1noc2nc(C)nc(N3CCCC(C(=O)O)C3)c12 (stereo not shown) [SN00785300]	0.0	
COc1ccc(S(=O)(=O)n2nc(-c3cc(OC)c(OC)c(OC)c3)cc2N)cc1OC [SN00785320]	21.7	
COCCNC(=O)N1Cc2c(C)nn(-c3ccccc3)c2-n2cccc2C1c1cccc(C)c1 (stereo not shown) [SN00785355]	10.0	
CCN1c2cc(C)ccc2-n2cccc2C12CCN(S(=O)(=O)c1ccc(C)cc1)CC2 [SN00785371]	10.4	
CC(C)CCNC(=O)C1(C)CCc2ccccc2C(=O)N1Cc1ccccc1F (stereo not shown) [SN00785390]	14.6	
Cc1ccc(C(=O)N2CCN(c3nc4ccccc4n4cccc34)CC2)cc1 [SN00785395]	25.5	
Cc1cccc(C)c1NC(=O)Cn1c(=O)n(CCc2c[nH]c3ccccc23)c(=O)c2cccnc21 [SN00785456]	0.5	
COc1ccc(S(=O)(=O)N2CC=C(C(=O)Nc3ccc(Cl)cc3)CC2)cc1 [SN00785473]	0.0	
COc1ccc(S(=O)(=O)N2CC=C(C(=O)NCc3ccc(C)cc3)CC2)cc1 [SN00785474]	23.4	
CCC1CCCCN1C(=O)Cn1c(C(=O)OC)cc2occc21 (stereo not shown) [SN00785479]	8.8	
Cn1c(C(=O)N2CCCC(C(=O)NCCc3ccccc3)C2)cc2sccc21 (stereo not shown) [SN00785483]	4.8	
CCOC(=O)c1cc2n(n1)CC(C)(C(=O)NCCC(C)C)N(CCc1cccs1)C2=O (stereo not shown) [SN00785530]	6.6	
CN(CCCN)C(=O)c1ccc2c(=O)n3c(nc2c1)CCCCC3 [SN00785585]	25.4	
CC1CCc2nn(CC(=O)NC(C)c3ccccc3)cc2C1 (stereo not shown) [SN00785614]	0.0	
Cc1cc(=O)n2nc(N(C)CC(=O)NC3CCCc4ccccc43)sc2n1 (stereo not shown) [SN00785631]	35.0	
CCCc1cc(=O)n2nc(N(C)CC(=O)NCCCN3CCCC3=O)sc2n1 [SN00785642]	4.1	

SMILES	% Inhibition n=1 48h [%]	other results
CCCCCCNC(=O)Cc1c(C)nc2c(-c3ccccc3)c(C)nn2c1C [SN00785656]	17.0	
CCC(=O)N1N=C2C3CCN(CC3)[C@@H]2[C@@H]1c1cccc(OC)c1OC [SN00785687]	13.8	
COc1ccc(C(=O)c2c(N)c(-c3nc(-c4cc(OC)ccc4OC)cs3)c3ccccn23)cc1 [SN00785721]	0.0	
O=S(=O)(c1ccc(Br)cc1)c1nc(-c2ccccc2)oc1N1CCOCC1 [SN00785745]	4.0	
Cc1ccc2nc(C3=C(N)N(C4CCCCCC4)CC3=O)[nH]c2c1 [SN00785773]	29.0	
Cc1ccc([N+](=O)[O-])cc1N1CC(=O)C(c2nc3ccccc3[nH]2)=C1N [SN00785776]	21.1	
CN(C)CCn1c(=O)c2[nH]cnc2n(C)c1=O [SN00785782]	13.4	
O=C1c2ccccc2C(=O)N1CC(=O)n1nc(-c2cccnc2)nc1NCc1cccs1 [SN00785806]	3.6	
Cc1cc(N2CCN(c3ccccc3F)CC2)n2cnnc2n1 [SN00785845]	30.4	
CN(Cc1ccccc1)c1c2c(nc3nncn13)CCC2 [SN00785855]	14.3	
Cc1ccc2c(c1)N=C(c1ccc(C)o1)N=C(c1cccs1)N2 [SN00785905]	69.6	Average % Inhibition 24h: 15.2%; % Inhibition n=1 24h: 22.4%; % Inhibition n=2 24h: 8.0%; Average % Inhibition 48h: 54.6%; % Inhibition n=2 48h: 39.6%
Fc1ccc(C2=NC(c3cccs3)=Nc3cc(Cl)ccc3N2)cc1 [SN00785914]	0.0	
O=C1O[C@@H]2C[C@H]3C[C@@H]2[C@@H]1[C@H]3C(=O)Nc1ccc(C(=O)N2CC=C(c3ccccc3)CC2)cc1 [SN00785926]	11.8	
CN1CC(c2nc3ccccc3[nH]2)CC1=O (stereo not shown) [SN00785951]	0.0	
CCCCS(=O)(=O)N1CCC(c2nnnn2-c2ccc(C)cc2)CC1 [SN00785962]	0.0	
Cc1ccccc1NC(=O)c1ccc2c(c1)CCN2S(C)(=O)=O [SN00785973]	31.2	
Cc1ccc(CNC(=O)c2ccc3c(c2)CCN3S(=O)(=O)c2ccc(C)cc2)cc1 [SN00785985]	38.5	
Cc1cccc(NC(=O)NC2CCN(c3nc(C)cc(C)n3)CC2)c1 [SN00786006]	33.8	
CCOc1cc(C2OCCn3c(-c4ccccc4)c4c(=O)n(C)c(=O)n(C)c4c32)ccc1O (stereo not shown) [SN00786012]	8.5	
CCCOc1ccc(C2OCCn3c(-c4ccc(OC)cc4)c4c(=O)n(C)c(=O)n(C)c4c32)cc1 (stereo not shown) [SN00786016]	14.8	
CC(=O)c1cc2c(cc1NC(=O)c1cn(-c3ccc(F)cc3)nn1)OCO2 [SN00786071]	7.4	
Cc1ccccc1NC(=O)c1nc(S(C)(=O)=O)ncc1N(Cc1ccco1)Cc1sccc1C [SN00786086]	11.7	

SMILES	% Inhibition n=1 48h [%]	other results
CCS(=O)(=O)c1ncc(N(Cc2ccco2)Cc2ccccc2F)c(C(=O)Nc2ccccc2)n1 [SN00786098]	17.4	
CCn1c(Cn2cccn2)nc2cc(NC(C)=O)ccc21 [SN00786137]	11.6	
CCCNC(=O)c1sc(-n2nc(C)c(Cl)c2C)nc1C [SN00786172]	52.5	Average % Inhibition 24h: 7.3%; % Inhibition n=1 24h: 14.5%; % Inhibition n=2 24h: 0.0%; Average % Inhibition 48h: 27.0%; % Inhibition n=2 48h: 1.5%
Cc1nc(-n2nc(C)c(Cc3ccccc3Cl)c2C)sc1C(=O)NC(C)C [SN00786185]	0.0	
Cc1ccc(CNc2nc(-c3ccco3)nn2C(=O)C(C)C)cc1 [SN00786221]	11.1	
Cc1ccc(CNc2nc(-c3ccco3)nn2C(=O)c2cccc([N+](=O)[O-])c2)cc1 [SN00786222]	6.6	
CN(C)C1(CNC(=O)COc2ccc(Br)cc2)CCCCC1 [SN00786247]	5.1	
Cc1ccc(OCC(=O)NCC2(N3CCN(C)CC3)CCCCC2)cc1 [SN00786260]	9.4	
CC1CCCCN1S(=O)(=O)c1ccc(NC(=O)c2cc(-c3cccs3)on2)cc1 (stereo not shown) [SN00786280]	10.1	
Cc1ccc(NC(=O)c2cc(-c3ccc4c(c3)OCCO4)on2)cc1C [SN00786283]	2.9	
O=C(NCc1ccccc1)c1nc[nH]c1C(=O)NCc1cccc(C(F)(F)F)c1 [SN00786288]	20.4	
COCCNC(=O)c1nc[nH]c1C(=O)NC(C)C [SN00786292]	8.3	
CCCCNc1ncccc1-c1nc(-c2ccc(C)cc2)no1 [SN00786331]	25.3	
Cc1nc(N2CCCCC2)cc(N2CCN(C(=O)c3cccc(F)c3)CC2)n1 [SN00786431]	7.0	
Cc1ccc(Nc2cc(N3CCN(S(=O)(=O)c4ccc(C)c(C)c4)CC3)nc(C)n2)cc1 [SN00786472]	20.7	
Cc1nc(N(C)C)cc(N2CCN(C(=O)Nc3cccc(C(F)(F)F)c3)CC2)n1 [SN00786482]	55.4	Average % Inhibition 24h: 10.6%; % Inhibition n=1 24h: 15.1%; % Inhibition n=2 24h: 6.1%; Average % Inhibition 48h: 29.2%; % Inhibition n=2 48h: 2.9%
COc1cc(NC(=O)N2CCN(c3cc(N(C)C)nc(C)n3)CC2)cc(OC)c1 [SN00786504]	55.1	Average % Inhibition 24h: 4.9%; % Inhibition n=1 24h: 9.8%; % Inhibition n=2 24h: 0.0%; Average % Inhibition 48h: 27.5%; % Inhibition n=2 48h: 0.0%
CCOC(=O)Cn1c(=O)n(-c2ccccc2)c(=O)c2cc3c(nc21)CC(C)(C)OC3 [SN00786524]	18.7	
CC1(C)Cc2nc3[nH]c(=O)n(Cc4ccco4)c(=O)c3cc2CO1 [SN00786536]	7.3	
O=C(Nc1ccc(N2CCn3c(nc4cc(Cl)ccc43)C2)cc1)NC1CCCCC1 [SN00786562]	10.0	
O=C(Cc1scnc1-c1cccs1)N1CCN(c2ccccn2)CC1 [SN00786601]	0.0	
